ChEMBL document CHEMBL1909046, “DrugMatrix in vitro pharmacology data”
pIC50: −log10 of the molar value.

What was measured:
[1] = target: T1, Nitric oxide synthase, inducible (Mus musculus, UniProt P29477); design: species or system Escherichia coli;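 also: inhibition of iNOS enzyme activity measured with L-arginine as substrate; in other assays of this panel Not Active means under 50% inhibition at 10 µM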
T1 sequence (P29477 whole entry): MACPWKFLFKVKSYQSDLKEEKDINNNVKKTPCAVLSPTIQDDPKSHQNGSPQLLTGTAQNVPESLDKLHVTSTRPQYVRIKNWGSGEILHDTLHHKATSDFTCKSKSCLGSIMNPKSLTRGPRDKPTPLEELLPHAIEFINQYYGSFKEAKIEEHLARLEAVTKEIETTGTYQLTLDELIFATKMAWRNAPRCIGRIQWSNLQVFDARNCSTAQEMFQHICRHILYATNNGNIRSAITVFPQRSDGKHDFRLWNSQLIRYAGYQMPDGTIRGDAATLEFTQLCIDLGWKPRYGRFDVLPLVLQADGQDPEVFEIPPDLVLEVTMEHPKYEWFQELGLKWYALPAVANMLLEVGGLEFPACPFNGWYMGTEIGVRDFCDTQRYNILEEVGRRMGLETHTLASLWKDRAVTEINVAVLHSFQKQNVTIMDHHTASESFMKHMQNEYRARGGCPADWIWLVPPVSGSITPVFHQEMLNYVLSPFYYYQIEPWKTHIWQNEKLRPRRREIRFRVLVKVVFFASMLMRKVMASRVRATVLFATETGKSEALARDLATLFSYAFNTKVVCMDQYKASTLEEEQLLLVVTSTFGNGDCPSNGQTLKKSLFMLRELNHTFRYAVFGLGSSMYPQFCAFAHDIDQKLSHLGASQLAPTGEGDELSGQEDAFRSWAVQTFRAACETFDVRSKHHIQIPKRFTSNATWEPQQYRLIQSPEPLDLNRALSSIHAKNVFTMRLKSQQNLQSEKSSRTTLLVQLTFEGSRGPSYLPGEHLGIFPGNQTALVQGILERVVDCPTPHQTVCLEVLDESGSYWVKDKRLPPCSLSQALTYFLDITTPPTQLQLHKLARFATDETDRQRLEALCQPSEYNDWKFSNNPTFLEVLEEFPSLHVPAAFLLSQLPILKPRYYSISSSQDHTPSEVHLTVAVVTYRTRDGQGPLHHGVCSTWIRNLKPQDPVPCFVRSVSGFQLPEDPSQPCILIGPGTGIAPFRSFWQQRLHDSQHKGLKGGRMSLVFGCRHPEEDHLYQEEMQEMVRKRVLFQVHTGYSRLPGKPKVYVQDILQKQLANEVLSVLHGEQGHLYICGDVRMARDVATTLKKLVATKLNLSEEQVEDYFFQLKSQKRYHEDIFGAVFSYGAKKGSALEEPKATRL

[2] = target: T2, Polyunsaturated fatty acid lipoxygenase ALOX15 (Oryctolagus cuniculus, UniProt P12530); assay: biochemical; assay type: tissue-based, Reticulocytes; details: for IC50: reticulocytes; for pIC50: read-out: IC50;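 as to all read-outs here: inhibition of 15-lipoxygenase enzyme activity measured with linoleic acid as the substrate; in other assays of this panel Not Active means under 50% inhibition at 10 µM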
T2 sequence (P12530 whole entry): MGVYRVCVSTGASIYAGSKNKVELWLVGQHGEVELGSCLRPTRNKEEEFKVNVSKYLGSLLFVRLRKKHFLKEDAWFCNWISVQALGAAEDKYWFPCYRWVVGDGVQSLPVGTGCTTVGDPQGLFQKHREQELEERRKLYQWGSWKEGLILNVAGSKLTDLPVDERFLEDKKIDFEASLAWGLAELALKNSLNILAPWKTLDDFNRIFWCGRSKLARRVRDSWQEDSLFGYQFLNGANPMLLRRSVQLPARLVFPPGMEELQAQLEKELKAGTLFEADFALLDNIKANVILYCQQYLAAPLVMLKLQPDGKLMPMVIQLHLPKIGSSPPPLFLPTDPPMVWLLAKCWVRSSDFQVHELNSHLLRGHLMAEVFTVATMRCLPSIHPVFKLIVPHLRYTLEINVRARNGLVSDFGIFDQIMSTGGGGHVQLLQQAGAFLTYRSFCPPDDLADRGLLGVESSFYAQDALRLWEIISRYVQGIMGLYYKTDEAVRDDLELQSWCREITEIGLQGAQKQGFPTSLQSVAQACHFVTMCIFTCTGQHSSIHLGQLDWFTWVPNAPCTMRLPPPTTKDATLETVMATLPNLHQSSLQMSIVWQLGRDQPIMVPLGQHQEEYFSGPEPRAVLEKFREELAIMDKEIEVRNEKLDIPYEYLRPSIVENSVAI

[3] = target: Mu-type opioid receptor (Homo sapiens, UniProt P35372); assay: DRUGMATRIX: Opiate mu (OP3, MOP) radioligand binding (ligand: [3H] Diprenorphine); assay type: cell membranes, CHO-K1, Membrane; details: cho-k1; Not Active = under 50% inhibition at 10 µM
Chain of Mu-type opioid receptor (P35372 whole entry): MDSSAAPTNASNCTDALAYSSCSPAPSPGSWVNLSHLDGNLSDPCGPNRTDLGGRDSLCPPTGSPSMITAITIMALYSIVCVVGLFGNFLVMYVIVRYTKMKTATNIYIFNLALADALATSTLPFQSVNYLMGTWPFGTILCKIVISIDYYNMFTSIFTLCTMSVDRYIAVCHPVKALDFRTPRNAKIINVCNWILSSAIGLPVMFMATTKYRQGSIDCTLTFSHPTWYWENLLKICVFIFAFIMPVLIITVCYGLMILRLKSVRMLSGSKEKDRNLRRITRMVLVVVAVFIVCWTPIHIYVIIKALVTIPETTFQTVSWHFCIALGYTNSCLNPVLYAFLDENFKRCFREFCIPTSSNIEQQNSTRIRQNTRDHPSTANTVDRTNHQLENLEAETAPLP

[4] = target: Tyrosine-protein kinase Lck (Homo sapiens, UniProt P06239); assay: DRUGMATRIX: Protein Tyrosine Kinase, LCK enzyme inhibition (substrate: Poly(Glu:Tyr)); assay type: cell-based, Insect cells; details: Not Active = under 50% inhibition at 10 µM; for IC50: insect cells
Chain of Tyrosine-protein kinase Lck (P06239 whole entry): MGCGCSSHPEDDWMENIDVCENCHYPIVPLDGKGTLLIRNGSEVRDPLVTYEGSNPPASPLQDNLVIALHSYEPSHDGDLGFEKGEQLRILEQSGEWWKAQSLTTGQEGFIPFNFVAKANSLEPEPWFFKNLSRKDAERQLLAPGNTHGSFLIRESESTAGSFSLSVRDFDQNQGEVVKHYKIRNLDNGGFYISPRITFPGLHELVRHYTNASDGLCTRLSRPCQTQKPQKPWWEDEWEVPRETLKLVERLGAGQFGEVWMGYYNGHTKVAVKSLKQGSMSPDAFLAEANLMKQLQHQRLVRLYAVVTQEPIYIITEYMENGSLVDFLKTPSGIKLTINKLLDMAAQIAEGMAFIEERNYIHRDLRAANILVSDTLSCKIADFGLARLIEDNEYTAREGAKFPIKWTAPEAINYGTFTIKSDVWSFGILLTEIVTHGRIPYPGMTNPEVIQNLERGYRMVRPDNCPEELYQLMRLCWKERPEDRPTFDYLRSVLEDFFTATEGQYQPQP

[5] = target: Cytochrome P450 2C9 (Homo sapiens, UniProt P11712); details: bti-tn-5b1-4; also: in other assays of this panel Not Active means under 50% inhibition at 10 µM
Chain of Cytochrome P450 2C9 (P11712 whole entry): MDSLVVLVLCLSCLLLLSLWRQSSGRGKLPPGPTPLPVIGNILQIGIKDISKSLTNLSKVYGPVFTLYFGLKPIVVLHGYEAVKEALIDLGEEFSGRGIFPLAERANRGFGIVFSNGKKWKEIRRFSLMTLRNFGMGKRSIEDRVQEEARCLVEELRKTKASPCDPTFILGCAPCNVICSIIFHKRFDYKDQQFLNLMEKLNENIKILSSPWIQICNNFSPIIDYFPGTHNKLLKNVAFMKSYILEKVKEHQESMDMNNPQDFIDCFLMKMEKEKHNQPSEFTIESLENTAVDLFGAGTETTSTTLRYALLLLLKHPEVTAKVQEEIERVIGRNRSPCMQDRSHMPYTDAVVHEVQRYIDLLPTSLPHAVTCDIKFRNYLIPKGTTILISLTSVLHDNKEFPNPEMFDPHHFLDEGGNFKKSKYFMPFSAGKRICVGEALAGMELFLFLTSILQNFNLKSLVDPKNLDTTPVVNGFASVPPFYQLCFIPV

[6] = target: T3, Cytochrome P450 2A6 (Homo sapiens, UniProt P11509); details: bti-tn-5b1-4; also: in other assays of this panel Not Active means under 50% inhibition at 10 µM
T3 sequence (P11509 whole entry): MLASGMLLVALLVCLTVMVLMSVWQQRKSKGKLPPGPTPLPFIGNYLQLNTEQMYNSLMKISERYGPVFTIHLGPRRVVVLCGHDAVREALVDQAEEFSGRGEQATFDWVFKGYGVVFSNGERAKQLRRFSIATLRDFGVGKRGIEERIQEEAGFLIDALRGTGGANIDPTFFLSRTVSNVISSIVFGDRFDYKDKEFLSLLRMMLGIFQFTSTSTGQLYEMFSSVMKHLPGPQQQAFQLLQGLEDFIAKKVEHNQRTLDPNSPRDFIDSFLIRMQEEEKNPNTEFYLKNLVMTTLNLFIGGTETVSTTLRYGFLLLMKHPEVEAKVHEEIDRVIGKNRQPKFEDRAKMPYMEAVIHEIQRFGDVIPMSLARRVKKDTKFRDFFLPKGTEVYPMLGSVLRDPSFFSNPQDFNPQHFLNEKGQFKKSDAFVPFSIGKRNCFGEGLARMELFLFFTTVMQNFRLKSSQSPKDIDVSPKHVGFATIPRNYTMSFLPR

Compound | IC50 [1] | IC50 [2] | IC50 [3] | IC50 [4] | IC50 [5] | Ki [5] | IC50 [6] | Ki [6] | pIC50 [2] | pIC50 ([4]; read-out: IC50)
CCCN(CCC)C(=O)C(CCC(=O)O)NC(=O)c1ccccc1 (stereo not drawn) [PROGLUMIDE] | Not Active | Not Active | Not Active | Not Active | Not Active | Not Active | Not Active | Not Active | – | –
CCCC(CCC)C(=O)O [VALPROIC ACID] | Not Active | Not Active | Not Active | Not Active | Not Active | Not Active | Not Active | Not Active | – | –
OC(CCN1CCCCC1)(c1ccccc1)C1CCCCC1 (stereo not drawn) [TRIHEXYPHENIDYL] | Not Active | Not Active | Not Active | Not Active | Not Active | Not Active | Not Active | Not Active | – | –
Cc1ccc(S(=O)(=O)NC(=O)NN2CC3CCCC3C2)cc1 (stereo not drawn) [GLICLAZIDE] | Not Active | Not Active | Not Active | Not Active | Not Active | Not Active | Not Active | Not Active | – | –
N=C(N)NC(=O)c1nc(Cl)c(N)nc1N [AMILORIDE] | Not Active | Not Active | Not Active | Not Active | Not Active | Not Active | Not Active | Not Active | – | –
CC(C)(Oc1ccc(C2CCCc3ccccc32)cc1)C(=O)O (stereo not drawn) [NAFENOPIN] | Not Active | Not Active | Not Active | Not Active | Not Active | Not Active | Not Active | Not Active | – | –
Cc1cc2cc3c(C)cc(=O)oc3c(C)c2o1 [TRIOXSALEN] | Not Active | Not Active | Not Active | Not Active | Not Active | Not Active | Not Active | Not Active | – | –
O=C1CC2(CCCC2)CC(=O)N1CCCCN1CCN(c2ncccn2)CC1 [BUSPIRONE] | Not Active | Not Active | Not Active | Not Active | Not Active | Not Active | Not Active | Not Active | – | –
COc1cccc2c1C(=O)c1c(O)c3c(c(O)c1C2=O)C[C@@](O)(C(=O)CO)C[C@@H]3O[C@H]1C[C@H](N)[C@@H](O)[C@H](C)O1 [EPIRUBICIN] | Not Active | Not Active | Not Active | Not Active | Not Active | Not Active | Not Active | Not Active | – | –
C#C[C@]1(O)CC[C@H]2[C@@H]3CCc4cc(OC)ccc4[C@H]3CC[C@@]21C [MESTRANOL] | Not Active | Not Active | Not Active | Not Active | Not Active | Not Active | Not Active | Not Active | – | –
CC(=O)Nc1ccc(O)cc1 [ACETAMINOPHEN] | Not Active | – | Not Active | Not Active | Not Active | Not Active | Not Active | Not Active | 4.55 | –
CCCCN1CCCCC1C(=O)Nc1c(C)cccc1C.Cl (stereo not drawn) [BUPIVACAINE HYDROCHLORIDE] | Not Active | Not Active | Not Active | Not Active | Not Active | Not Active | Not Active | Not Active | – | –
Nc1ccn([C@@H]2CS[C@H](CO)O2)c(=O)n1 [LAMIVUDINE] | Not Active | Not Active | Not Active | Not Active | Not Active | Not Active | Not Active | Not Active | – | –
C[C@](O)(CS(=O)(=O)c1ccc(F)cc1)C(=O)Nc1ccc(C#N)c(C(F)(F)F)c1 [(R)-BICALUTAMIDE] | Not Active | Not Active | Not Active | Not Active | Not Active | Not Active | Not Active | Not Active | – | –
Cc1nccn1CC1CCc2c(c3ccccc3n2C)C1=O (stereo not drawn) [ONDANSETRON] | Not Active | Not Active | Not Active | Not Active | Not Active | Not Active | Not Active | Not Active | – | –
CCOC(=O)[C@H](CCc1ccccc1)N[C@H]1CCc2ccccc2N(CC(=O)O)C1=O [BENAZEPRIL] | Not Active | Not Active | Not Active | Not Active | Not Active | Not Active | Not Active | Not Active | – | –
CCCCOc1ccc(OCCCN2CCOCC2)cc1 [PRAMOXINE] | Not Active | Not Active | Not Active | Not Active | Not Active | Not Active | Not Active | Not Active | – | –
COc1cccc2c1C(=O)c1c(O)c3c(c(O)c1C2=O)C[C@@](O)(C(=O)CO)C[C@@H]3O[C@H]1C[C@H](N)[C@H](O)[C@H](C)O1 [DOXORUBICIN] | Not Active | – | Not Active | – | Not Active | Not Active | Not Active | Not Active | 4.87 | 4.50
C[C@H]1C[C@H]2[C@@H]3CCC4=CC(=O)C=C[C@]4(C)[C@@]3(Cl)[C@@H](O)C[C@]2(C)[C@@]1(O)C(=O)CO [BECLOMETHASONE] | Not Active | Not Active | Not Active | Not Active | Not Active | Not Active | Not Active | Not Active | – | –
CCN(CC)CCOC(=O)c1ccc(N)cc1 [PROCAINE] | Not Active | Not Active | Not Active | Not Active | Not Active | Not Active | Not Active | Not Active | – | –
O=C(O)Cc1ccccc1Nc1c(Cl)cccc1Cl [DICLOFENAC] | Not Active | Not Active | Not Active | Not Active | Not Active | Not Active | Not Active | Not Active | – | –
